Where “and” joins values, the source holds several entries; their conditions need not be identical. Equal entries are not always repeated.

The nature of data set [1]: in vitro. The settings on record: African green monkey. The procedure:
(§1) Vero-E6 (African green monkey kidney cells) was purchased from Harbin Veterinary Research Institute (Harbin, P. R. China). The cells were grown in monolayer culture with Dulbecco’s modified Eagle’s medium (DMEM) supplemented with 10% fetal calf serum (FCS), 100 U/mL penicillin and 100 μg/mL streptomycin. The monolayers were removed from their plastic surfaces and serially passaged whenever they became confluent. Cells were plated out onto 96-well culture plates for cytotoxicity and anti-IBV assays, and propagated at 37 °C in an atmosphere of 5 % CO2.
(§2) The supernatants were discarded, washed with PBS twice and MTT reagent (5 mg/mL in PBS) was added to each well, after incubated at 37 °C for 4 h, remove the supernatants, then 200 μL DMSO was added and incubated at 37 °C for another 30 min. After that the plates were read on an ELISA reader (Thermo Molecular Devices Co., Union City, USA) at 570/630 nm. The mean OD of the cell control wells was assigned a value of 100%. The maximal non-toxic concentration (TD0) and 50% cytotoxic concentration (CC50) were calculated by linear regression analysis of the dose-response curves generated from the data.

The test system of data set [2] is IBV (Gray strain). In words: Anti-IBV activity (inhibition of virus replication, MTT method). It counts as cell-based, Infectious bronchitis virus. The settings on record: Avian coronavirus, Vero, 72 h. The procedure:
The IBV Gray strain was purchased from National Control Institute of Veterinatory Bioproducts and Pharmaceuticals (Beijing, P. R. China). Virus was routinely grown on Vero-E6 cells. IBV-Gray stock cultures were prepared from supernatants of infected cells and stored at −80 °C.
Inhibition of virus replication was measured by MTT method. Serial dilution of the treated virus was adsorbed to the cells for 1 h at 37 °C. The residual inoculum was discared and infected cells were added with DMEM containing 2% FCS. Each assay was performed in eight replicates. After incubation for 72 h at 37 °C, the cultures were measured by MTT method as described above.
For orientation: Formazan colour is commonly taken as a measure of viable cells.

In data set [3] the test system is IBV (Gray strain).
Description: The compound was aspirated and cells were washed immediately before the IBV inoculum was added. […] For analyzing the anti-IBV inhibition during the adsorption period, the same amount of IBV was mixed with the drug and added to the cells immediately. After 1h of adsorption at 37 °C, the inoculum was removed and DMEM supplemented with 2% FCS were added to the cells. […] Each assay was run in eight replicates. Ribavirin was used as a positive control.
Data set [4] has as its system Vero-E6 cells. Briefly: in vitro. The following applies: Vero cells, 72 h, MTT. The procedure:
as §1, §2

Molecule `CC1=CCC2CC1C2(C)C` (stereo not drawn) [(-)-α-pinene] displayed a CC50 at 72 h in data set [1] of over 10000 µM. This molecule had an IC50 in data set [2] of 980 ± 250 µM. Further, in data set [3], the inhibition was 87% and 67.6%.

Molecule `NC(=O)c1ncn([C@@H]2O[C@H](CO)[C@@H](O)[C@H]2O)n1` [Ribavirin, ribavirin, reference compound] gave a CC50 at 72 h in data set [1] of over 1000 µM. In data set [2], this molecule yielded an IC50 of 118 ± 20 µM. Also, the inhibition in data set [3] stood at 90.2 ± 2.8%.

On to `C=C1CCC2CC1C2(C)C` (stereo not drawn) [(-)-β-pinene], for which, in data set [1], the CC50 at 72 h was over 10000 µM. Besides, the “TD0 (maximum noncytotoxic concentration)” value in data set [4] is 6.09 ± 0.31 mM. This molecule also had an IC50 in data set [2] of 1320 ± 110 µM. Moreover, the inhibition in data set [3] is 81% and 55.4%.

Broadly, the IC50 is the point on the concentration scale where inhibition reaches its midpoint. The term inhibition denotes the percentage by which the read-out fell short of the control.

Source of the values: article PMC6259611, “Comparative Anti-Infectious Bronchitis Virus (IBV) Activity of (-)-Pinene: Effect on Nucleocapsid (N) Protein” (Molecules, 2011).
